Test results published in the supplement of paper PMC11208160.
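Further: IS621 bridge recombinase in Escherichia coli cells against a fixed T5 target plasmid.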

Assay: recombinant UMI read abundance after kanamycin selection (control-corrected) (log10(CPM+1)); higher = more efficient recombination; extreme values may be limits of the assay; sequences stand for … in AGTGCAGAGAAAATCGGCCAGTTTTCTCTGCCTGCAGTCCGCATGCCGTGGGACCCCTTGGGTTCTAACCTGTTGCCTAGATTTATGCAGCGGACTGCCTTTCTCCCAAAGTGATAAACCGG…AGGTTGGTTTCACT; site = the 11-nt donor
Outline: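 For the IS621 bridge recombinase, a pooled Escherichia coli screen tested donor and donor-binding-loop pairs. Cells received the pair library together with a target plasmid encoding a fixed target and T7-inducible recombinase, then went onto IPTG (0.07 mM) plus kanamycin or unselected plates in duplicate. After PCR across the donor–target junction and sequencing, recombinant UMI counts were normalized to CPM, averaged, and scaled by control-derived factors. Each value is given as log10(CPM+1).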
In the case of “AGGAAGACATGGACCGGTTTTCCCGGTAATCCGTATTTGAA (site AGGAAGACTTT)”, the “recombinant UMI read abundance (log10)” value is reported as 2.37. With “AGGAAGACATGGACCGGTTTTCCCGGTAATCCGTATTTGCA (site AAGAACACTTG)” the “recombinant UMI read abundance (log10)” value was 0. With “AGGAAGACATGGACCGGTTTTCCCGGTAATCCGTATTTGCA (site AAGAAGACTGG)” the “recombinant UMI read abundance (log10)” value was 0. With “AGGAAGACATGGACCGGTTTTCCCGGTAATCCGTATTTGCA (site AAGAAGACTTG)” the “recombinant UMI read abundance (log10)” value was 1.06. For “AGGAAGACATGGACCGGTTTTCCCGGTAATCCGTATTTGCA (site AAGAAGACTTT)”, the “recombinant UMI read abundance (log10)” value was 0.0128. With “AGGAAGACATGGACCGGTTTTCCCGGTAATCCGTATTTGCA (site AAGAAGCCTTG)” the “recombinant UMI read abundance (log10)” value was 0. With “AGGAAGACATGGACCGGTTTTCCCGGTAATCCGTATTTGCA (site AAGAGGACTTG)” the “recombinant UMI read abundance (log10)” value was 0.101. For “AGGAAGACATGGACCGGTTTTCCCGGTAATCCGTATTTGCA (site AAGTAGACTTG)”, the “recombinant UMI read abundance (log10)” value was 1.23. With “AGGAAGACATGGACCGGTTTTCCCGGTAATCCGTATTTGCA (site AATAAGACTTG)” the “recombinant UMI read abundance (log10)” value was 1.43. With “AGGAAGACATGGACCGGTTTTCCCGGTAATCCGTATTTGCA (site ACAAAGACTTG)” the “recombinant UMI read abundance (log10)” value was 1.25. With “AGGAAGACATGGACCGGTTTTCCCGGTAATCCGTATTTGCA (site ACGAAAACTTG)” the “recombinant UMI read abundance (log10)” value was 0. With “AGGAAGACATGGACCGGTTTTCCCGGTAATCCGTATTTGCA (site ACGAAGACTCG)” the “recombinant UMI read abundance (log10)” value was 0.0101. For “AGGAAGACATGGACCGGTTTTCCCGGTAATCCGTATTTGCA (site ACGAAGACTTA)”, the “recombinant UMI read abundance (log10)” value was 0.00527. For “AGGAAGACATGGACCGGTTTTCCCGGTAATCCGTATTTGCA (site ACGAAGACTTG)”, the “recombinant UMI read abundance (log10)” value was 0.832. With “AGGAAGACATGGACCGGTTTTCCCGGTAATCCGTATTTGCA (site ACGAAGTCTTG)” the “recombinant UMI read abundance (log10)” value was 0. In the case of “AGGAAGACATGGACCGGTTTTCCCGGTAATCCGTATTTGCA (site ACGATGACTTG)”, the “recombinant UMI read abundance (log10)” value is reported as 0. In the case of “AGGAAGACATGGACCGGTTTTCCCGGTAATCCGTATTTGCA (site ACGGAGACTTG)”, the “recombinant UMI read abundance (log10)” value is reported as 2.51. In the case of “AGGAAGACATGGACCGGTTTTCCCGGTAATCCGTATTTGCA (site AGAAAAACTTG)”, the “recombinant UMI read abundance (log10)” value is reported as 0. In the case of “AGGAAGACATGGACCGGTTTTCCCGGTAATCCGTATTTGCA (site AGAAAGACTCG)”, the “recombinant UMI read abundance (log10)” value is reported as 0.0197. With “AGGAAGACATGGACCGGTTTTCCCGGTAATCCGTATTTGCA (site AGAAAGACTTA)” the “recombinant UMI read abundance (log10)” value was 0.795. With “AGGAAGACATGGACCGGTTTTCCCGGTAATCCGTATTTGCA (site AGAAAGACTTG)” the “recombinant UMI read abundance (log10)” value was 2.32. In the case of “AGGAAGACATGGACCGGTTTTCCCGGTAATCCGTATTTGCA (site AGAAAGTCTTG)”, the “recombinant UMI read abundance (log10)” value is reported as 0.0125. For “AGGAAGACATGGACCGGTTTTCCCGGTAATCCGTATTTGCA (site AGAATGACTTG)”, the “recombinant UMI read abundance (log10)” value was 0.777. In the case of “AGGAAGACATGGACCGGTTTTCCCGGTAATCCGTATTTGCA (site AGAGAGACTTG)”, the “recombinant UMI read abundance (log10)” value is reported as 1.79. For “AGGAAGACATGGACCGGTTTTCCCGGTAATCCGTATTTGCA (site AGCAAGACTAG)”, the “recombinant UMI read abundance (log10)” value was 0.0137. With “AGGAAGACATGGACCGGTTTTCCCGGTAATCCGTATTTGCA (site AGCAAGACTTC)” the “recombinant UMI read abundance (log10)” value was 0.00298. For “AGGAAGACATGGACCGGTTTTCCCGGTAATCCGTATTTGCA (site AGCAAGACTTG)”, the “recombinant UMI read abundance (log10)” value was 0.723. In the case of “AGGAAGACATGGACCGGTTTTCCCGGTAATCCGTATTTGCA (site AGCAAGGCTTG)”, the “recombinant UMI read abundance (log10)” value is reported as 0.00883. For “AGGAAGACATGGACCGGTTTTCCCGGTAATCCGTATTTGCA (site AGCAATACTTG)”, the “recombinant UMI read abundance (log10)” value was 0. In the case of “AGGAAGACATGGACCGGTTTTCCCGGTAATCCGTATTTGCA (site AGCACGACTTG)”, the “recombinant UMI read abundance (log10)” value is reported as 0. With “AGGAAGACATGGACCGGTTTTCCCGGTAATCCGTATTTGCA (site AGCCAGACTTG)” the “recombinant UMI read abundance (log10)” value was 0.654. For “AGGAAGACATGGACCGGTTTTCCCGGTAATCCGTATTTGCA (site AGGAAAACTCG)”, the “recombinant UMI read abundance (log10)” value was 0. In the case of “AGGAAGACATGGACCGGTTTTCCCGGTAATCCGTATTTGCA (site AGGAAAACTTA)”, the “recombinant UMI read abundance (log10)” value is reported as 0. For “AGGAAGACATGGACCGGTTTTCCCGGTAATCCGTATTTGCA (site AGGAAAACTTG)”, the “recombinant UMI read abundance (log10)” value was 0.57. In the case of “AGGAAGACATGGACCGGTTTTCCCGGTAATCCGTATTTGCA (site AGGAAATCTTG)”, the “recombinant UMI read abundance (log10)” value is reported as 0. With “AGGAAGACATGGACCGGTTTTCCCGGTAATCCGTATTTGCA (site AGGAACACTGG)” the “recombinant UMI read abundance (log10)” value was 0.014. With “AGGAAGACATGGACCGGTTTTCCCGGTAATCCGTATTTGCA (site AGGAACACTTG)” the “recombinant UMI read abundance (log10)” value was 1.51. For “AGGAAGACATGGACCGGTTTTCCCGGTAATCCGTATTTGCA (site AGGAACACTTT)”, the “recombinant UMI read abundance (log10)” value was 0.0161. With “AGGAAGACATGGACCGGTTTTCCCGGTAATCCGTATTTGCA (site AGGAACCCTTG)” the “recombinant UMI read abundance (log10)” value was 0. For “AGGAAGACATGGACCGGTTTTCCCGGTAATCCGTATTTGCA (site AGGAAGACTAC)”, the “recombinant UMI read abundance (log10)” value was 0.00471. In the case of “AGGAAGACATGGACCGGTTTTCCCGGTAATCCGTATTTGCA (site AGGAAGACTAG)”, the “recombinant UMI read abundance (log10)” value is reported as 0.102. For “AGGAAGACATGGACCGGTTTTCCCGGTAATCCGTATTTGCA (site AGGAAGACTCA)”, the “recombinant UMI read abundance (log10)” value was 0.0159. With “AGGAAGACATGGACCGGTTTTCCCGGTAATCCGTATTTGCA (site AGGAAGACTCG)” the “recombinant UMI read abundance (log10)” value was 0.784. In the case of “AGGAAGACATGGACCGGTTTTCCCGGTAATCCGTATTTGCA (site AGGAAGACTGG)”, the “recombinant UMI read abundance (log10)” value is reported as 1.34. For “AGGAAGACATGGACCGGTTTTCCCGGTAATCCGTATTTGCA (site AGGAAGACTGT)”, the “recombinant UMI read abundance (log10)” value was 0. In the case of “AGGAAGACATGGACCGGTTTTCCCGGTAATCCGTATTTGCA (site AGGAAGACTTA)”, the “recombinant UMI read abundance (log10)” value is reported as 1.62. In the case of “AGGAAGACATGGACCGGTTTTCCCGGTAATCCGTATTTGCA (site AGGAAGACTTC)”, the “recombinant UMI read abundance (log10)” value is reported as 0.0105. With “AGGAAGACATGGACCGGTTTTCCCGGTAATCCGTATTTGCA (site AGGAAGACTTG)” the “recombinant UMI read abundance (log10)” value was 2.88. With “AGGAAGACATGGACCGGTTTTCCCGGTAATCCGTATTTGCA (site AGGAAGACTTT)” the “recombinant UMI read abundance (log10)” value was 2.15. For “AGGAAGACATGGACCGGTTTTCCCGGTAATCCGTATTTGCA (site AGGAAGCCTGG)”, the “recombinant UMI read abundance (log10)” value was 0. For “AGGAAGACATGGACCGGTTTTCCCGGTAATCCGTATTTGCA (site AGGAAGCCTTG)”, the “recombinant UMI read abundance (log10)” value was 0. In the case of “AGGAAGACATGGACCGGTTTTCCCGGTAATCCGTATTTGCA (site AGGAAGCCTTT)”, the “recombinant UMI read abundance (log10)” value is reported as 0. With “AGGAAGACATGGACCGGTTTTCCCGGTAATCCGTATTTGCA (site AGGAAGGCTAG)” the “recombinant UMI read abundance (log10)” value was 0. With “AGGAAGACATGGACCGGTTTTCCCGGTAATCCGTATTTGCA (site AGGAAGGCTTC)” the “recombinant UMI read abundance (log10)” value was 0. For “AGGAAGACATGGACCGGTTTTCCCGGTAATCCGTATTTGCA (site AGGAAGGCTTG)”, the “recombinant UMI read abundance (log10)” value was 1.84. With “AGGAAGACATGGACCGGTTTTCCCGGTAATCCGTATTTGCA (site AGGAAGTCTCG)” the “recombinant UMI read abundance (log10)” value was 0. With “AGGAAGACATGGACCGGTTTTCCCGGTAATCCGTATTTGCA (site AGGAAGTCTTA)” the “recombinant UMI read abundance (log10)” value was 0.81. In the case of “AGGAAGACATGGACCGGTTTTCCCGGTAATCCGTATTTGCA (site AGGAAGTCTTG)”, the “recombinant UMI read abundance (log10)” value is reported as 1.05. In the case of “AGGAAGACATGGACCGGTTTTCCCGGTAATCCGTATTTGCA (site AGGAATACTAG)”, the “recombinant UMI read abundance (log10)” value is reported as 0. In the case of “AGGAAGACATGGACCGGTTTTCCCGGTAATCCGTATTTGCA (site AGGAATACTTC)”, the “recombinant UMI read abundance (log10)” value is reported as 0. In the case of “AGGAAGACATGGACCGGTTTTCCCGGTAATCCGTATTTGCA (site AGGAATACTTG)”, the “recombinant UMI read abundance (log10)” value is reported as 1.12. For “AGGAAGACATGGACCGGTTTTCCCGGTAATCCGTATTTGCA (site AGGAATGCTTG)”, the “recombinant UMI read abundance (log10)” value was 0. With “AGGAAGACATGGACCGGTTTTCCCGGTAATCCGTATTTGCA (site AGGACGACTAG)” the “recombinant UMI read abundance (log10)” value was 0.0203. In the case of “AGGAAGACATGGACCGGTTTTCCCGGTAATCCGTATTTGCA (site AGGACGACTTC)”, the “recombinant UMI read abundance (log10)” value is reported as 0.00604. With “AGGAAGACATGGACCGGTTTTCCCGGTAATCCGTATTTGCA (site AGGACGACTTG)” the “recombinant UMI read abundance (log10)” value was 0.36. For “AGGAAGACATGGACCGGTTTTCCCGGTAATCCGTATTTGCA (site AGGACGGCTTG)”, the “recombinant UMI read abundance (log10)” value was 0.00854. For “AGGAAGACATGGACCGGTTTTCCCGGTAATCCGTATTTGCA (site AGGACTACTTG)”, the “recombinant UMI read abundance (log10)” value was 0. With “AGGAAGACATGGACCGGTTTTCCCGGTAATCCGTATTTGCA (site AGGAGCACTTG)” the “recombinant UMI read abundance (log10)” value was 0.0101. In the case of “AGGAAGACATGGACCGGTTTTCCCGGTAATCCGTATTTGCA (site AGGAGGACTGG)”, the “recombinant UMI read abundance (log10)” value is reported as 0. With “AGGAAGACATGGACCGGTTTTCCCGGTAATCCGTATTTGCA (site AGGAGGACTTG)” the “recombinant UMI read abundance (log10)” value was 0. In the case of “AGGAAGACATGGACCGGTTTTCCCGGTAATCCGTATTTGCA (site AGGAGGACTTT)”, the “recombinant UMI read abundance (log10)” value is reported as 0.0142. For “AGGAAGACATGGACCGGTTTTCCCGGTAATCCGTATTTGCA (site AGGAGGCCTTG)”, the “recombinant UMI read abundance (log10)” value was 0. With “AGGAAGACATGGACCGGTTTTCCCGGTAATCCGTATTTGCA (site AGGATAACTTG)” the “recombinant UMI read abundance (log10)” value was 0.855. For “AGGAAGACATGGACCGGTTTTCCCGGTAATCCGTATTTGCA (site AGGATGACTCG)”, the “recombinant UMI read abundance (log10)” value was 0.0201. With “AGGAAGACATGGACCGGTTTTCCCGGTAATCCGTATTTGCA (site AGGATGACTTA)” the “recombinant UMI read abundance (log10)” value was 0.0119.
